Measured values as given in article PMC10413920, “Design, synthesis and in vitro biological studies of novel triazoles with potent and broad-spectrum antifungal activity” (Journal of Enzyme Inhibition and Medicinal Chemistry, 2023).
Values after ≈ are worked out from the molar mass of the structure shown.

Assays:
in vitro = conditions: rabbit
Candida tropicalis 8915 = experiment: Broth microdilution MIC (CLSI M27-A3/M60); type: cell-based; conditions: MIC80 (≥80% growth inhibition), 30 °C, 24 h; for MIC: Candida tropicalis, 8915, read-out: MIC, C. tro 8915
Procedure: (§1) According to the Clinical Laboratory Standards Institute (CLSI, M27-A3 and M60) protocols[10]^,[11], the target compounds were evaluated for their in vitro antifungal activity by the broth microdilution method. The fungi strains used in this study were obtained from the American Type Culture Collection (ATCC) and Changhai Hospital (Shanghai, China). […] Fluconazole (FCZ) and ketoconazole (KCZ) were used as positive controls.
(§2) All fungal strains used in this study were obtained from the American Type Culture Collection (ATCC) and Changhai Hospital (Shanghai, China). All strains were cultivated by shaking (200 rpm) at 30 °C in YEPD medium (1% yeast extract, 2% peptone, and 2% dextrose) to an exponential growth stage.
(§3) Fungal cells at the exponential growth stage were collected and resuspended in RPMI 1640 medium, then diluted to 1 × 10^3 cells/mL. The suspension of fungal cells was inoculated into 96-well plates. Antifungal compounds were serially added and diluted in a 2-fold series to a final concentration range of 64.0–0.125 µg/mL. RPMI 1640 medium with no fungal cells served as a blank control. The fungal suspensions containing DMSO and FCZ served as the negative control and the positive control, respectively. C. albicans, C. glabrata, C. parapsilosis, C. tropicalis, and C. auris cells were incubated at 30 °C for 24 h, C. neoformans and A. fumigatus cells were incubated at 30 °C for 48 h. The optical density (OD630) at 630 nm was measured by a spectrophotometer, which was used to calculate the MIC80 values of each compound.

Candida albicans SC5314 = experiment: Broth microdilution MIC (CLSI M27-A3/M60); type: cell-based; conditions: MIC80 (≥80% growth inhibition), 30 °C, 24 h; for MIC: Candida albicans, SC5314, read-out: MIC, C. alb SC5314
Procedure: as §1, §2, §3

[1] = test system: Aspergillus fumigatus 7544; experiment: Broth microdilution MIC (CLSI M27-A3/M60); type: cell-based; conditions: MIC80 (≥80% growth inhibition), 30 °C, 48 h; for MIC: Aspergillus fumigatus, 7544, read-out: MIC, A. fum 7544
Procedure: as §1, §2, §3

[2] = test system: Candida parapsilosis 22-20; experiment: Broth microdilution MIC (CLSI M27-A3/M60); type: cell-based; conditions: Lodderomyces parapsilosis, 2220; MIC80 (≥80% growth inhibition), 30 °C, 24 h; read-out: MIC, C. par 22-20
Procedure: as §1, §2, §3

[3] = test system: Cryptococcus neoformans 22-21; experiment: Broth microdilution MIC (CLSI M27-A3/M60); type: cell-based; conditions: 2221, MIC80 (≥80% growth inhibition), 30 °C, 48 h, read-out: MIC, C. neo 22-21
Procedure: as §1, §2, §3

Candida glabrata 537 = experiment: Broth microdilution MIC (CLSI M27-A3/M60); type: cell-based; conditions: MIC80 (≥80% growth inhibition), 30 °C, 24 h; for MIC: Nakaseomyces glabratus, 537, read-out: MIC, C. gla 537
Procedure: as §1, §2, §3

[4] = test system: FCZ-resistant C. albicans 901; experiment: MIC against FCZ-resistant strains, microdilution; type: cell-based, Candida albicans; conditions: FCZ-resistant isolate, 30 °C, 24 h; for MIC: Candida albicans, read-out: MIC, C.alb 901
Description: (§4) The alarming impact of drug resistance amongst Candida spp. is an emerging problem globally. Rising rates of azole-resistant Candida spp. are associated with an increase in treatment failures. Candida auris is characterised by a high level of multi-drug resistance. It has been reported in more than 45 countries and has caused serious hospital outbreaks with crude mortality rates as high as 72%[13]^,[14].
as §2
as §3, with “The fungal suspensions containing DMSO and FCZ served as the negative control and the positive control, respectively.” left out

C. auris 919 = experiment: MIC against FCZ-resistant strains, microdilution; type: cell-based, Candida auris; conditions: Candidozyma auris, FCZ-resistant isolate, 30 °C, 24 h
Description: as §4, §2
as §3, with “The fungal suspensions containing DMSO and FCZ served as the negative control and the positive control, respectively.” left out

C. auris 918 = experiment: MIC against FCZ-resistant strains, microdilution; type: cell-based, Candida auris; conditions: Candidozyma auris, FCZ-resistant isolate, 30 °C, 24 h
Description: as §4, §2
as §3, with “The fungal suspensions containing DMSO and FCZ served as the negative control and the positive control, respectively.” left out

C. albicans SC5314 = experiment: GC-MS analysis of sterol composition; type: cell-based, Candida albicans; conditions: 8 µg/mL, 8 h; for ergosterol content of the fungal cells (of total sterols): control 89.85%
Procedure: As the major fungal sterol, ergosterol accounted for 89.85% of the total sterols in the control group, zymosterol accounted for 8.80%, in addition to several other sterols. […] In contrast, the content of other sterols in the bypass pathway increased.
Overnight cultured C. albicans SC5314 fungal cells were collected and diluted to 5 × 10^6 cells/mL in YEPD medium. […] The fungal cells were cultured by shaking (200 rpm) at 30 °C. After incubation for 8 h, the fungal suspension was centrifuged (3000 rpm, 1 min), harvested and washed twice with distilled water carefully. The saponifying agent (6 ml of 15% NaOH resolved in 90% ethanol) was added to the precipitate. After 1 h of saponification at 80 °C, sterols were extracted with hexane (3 × 5 ml). The combined extracts were evaporated in a water bath and washed once with water. The residue was dried in a 60 °C water bath to obtain the total sterols. Finally, the total sterol was analysed by GC-MS and the structures of each sterol content were identified and compared with the National Institute of Standards and Technology (NIST) database.

Row | SMILES | MIC (Candida tropicalis 8915) [µg/mL] | MIC (Candida albicans SC5314) [µg/mL] | MIC [1] [µg/mL] | MIC [2] [µg/mL] | MIC [3] [µg/mL] | MIC (Candida glabrata 537) [µg/mL] | MIC [4] [µg/mL] | MIC (C. auris 919) [µg/mL] | MIC (C. auris 918) [µg/mL] | other results
1 | C[C@@H](NC(=O)CCc1ccccc1)[C@](O)(Cn1cncn1)c1ccc(F)cc1F [A1] | > 64 | ≤ 0.125 | 64 (≈ 160 µM) | 0.5 (≈ 1.25 µM) | 0.25 (≈ 0.624 µM) | ≤ 0.125 | 1 (≈ 2.5 µM) | 32 (≈ 79.9 µM) | 64 (≈ 160 µM) | hemolysis at 1 h, 16 µg/mL (in vitro): 0.95%; MIC, C. alb SC5314 (Candida albicans SC5314): ≤ 0.125 µg/mL; MIC, C. gla 537 (Candida glabrata 537): ≤ 0.125 µg/mL; MIC, C.alb 901 [4]: 1.0 µg/mL (≈ 2.5 µM); proportion of 14α-methylfecosterol (of total sterols) (C. albicans SC5314): 31.11%; proportion of eburicol (of total sterols) (C. albicans SC5314): 19.29%; proportion of lanosterol (of total sterols) (C. albicans SC5314): 23.42%; proportion of obtusifoliol (of total sterols) (C. albicans SC5314): 20.09%; ergosterol content of the fungal cells (of total sterols) (C. albicans SC5314): 5.44%
2 | C[C@@H](NC(=O)CCc1ccc(F)c(F)c1)[C@](O)(Cn1cncn1)c1ccc(F)cc1F [A14] | 64 (≈ 147 µM) | ≤ 0.125 | 64 (≈ 147 µM) | 1 (≈ 2.29 µM) | 1 (≈ 2.29 µM) | ≤ 0.125 | 4 (≈ 9.17 µM) | > 64 | > 64 | –
3 | C[C@@H](NC(=O)CCc1cc(F)cc(F)c1)[C@](O)(Cn1cncn1)c1ccc(F)cc1F [A17] | 16 (≈ 36.7 µM) | ≤ 0.125 | 32 (≈ 73.3 µM) | 0.5 (≈ 1.15 µM) | 0.5 (≈ 1.15 µM) | ≤ 0.125 | 4 (≈ 9.17 µM) | > 64 | > 64 | –
4 | Cc1ccnc(CCC(=O)N[C@H](C)[C@](O)(Cn2cncn2)c2ccc(F)cc2F)c1 [A20] | > 64 | 1 (≈ 2.41 µM) | > 64 | 4 (≈ 9.63 µM) | 4 (≈ 9.63 µM) | 2 (≈ 4.81 µM) | – | – | – | –
5 | Cc1ccc(CCC(=O)N[C@H](C)[C@](O)(Cn2cncn2)c2ccc(F)cc2F)nc1 [A21] | > 64 | 2 (≈ 4.81 µM) | > 64 | 4 (≈ 9.63 µM) | 4 (≈ 9.63 µM) | 2 (≈ 4.81 µM) | – | – | – | –
6 | Cc1ccncc1CCC(=O)N[C@H](C)[C@](O)(Cn1cncn1)c1ccc(F)cc1F [A23] | > 64 | 64 (≈ 154 µM) | > 64 | 16 (≈ 38.5 µM) | 8 (≈ 19.3 µM) | 1 (≈ 2.41 µM) | – | – | – | –
7 | Cc1cncc(CCC(=O)N[C@H](C)[C@](O)(Cn2cncn2)c2ccc(F)cc2F)c1 [A24] | > 64 | 16 (≈ 38.5 µM) | > 64 | 32 (≈ 77 µM) | 32 (≈ 77 µM) | 4 (≈ 9.63 µM) | – | – | – | –
8 | Cc1ccc(CCC(=O)N[C@H](C)[C@](O)(Cn2cncn2)c2ccc(F)cc2F)cn1 [A25] | > 64 | 16 (≈ 38.5 µM) | > 64 | 64 (≈ 154 µM) | 16 (≈ 38.5 µM) | 2 (≈ 4.81 µM) | – | – | – | –
9 | C[C@@H]1[C@H](O)[C@@H](C)/C=C/C=C/C=C/C=C/C=C/C=C/C=C/[C@H](O[C@@H]2O[C@H](C)[C@@H](O)[C@H](N)[C@@H]2O)C[C@@H]2O[C@](O)(C[C@@H](O)C[C@@H](O)[C@H](O)CC[C@@H](O)C[C@@H](O)CC(=O)O[C@H]1C)C[C@H](O)[C@H]2C(=O)O [AmB, amphotericin B] | – | – | – | – | – | – | – | – | – | hemolysis at 1 h, 16 µg/mL (in vitro): 4.87%; hemolysis at 1 h, 32 µg/mL (in vitro): 57.7%; hemolysis at 1 h, 64 µg/mL (in vitro): 100%
10 | OC(Cn1cncn1)(Cn1cncn1)c1ccc(F)cc1F [FCZ, fluconazole, reference compound] | > 64 | 0.5 (≈ 1.63 µM) | > 64 | 4 (≈ 13.1 µM) | 1 (≈ 3.27 µM) | 1 (≈ 3.27 µM) | > 256 | > 256 | > 256 | hemolysis at 1 h, 16 µg/mL (in vitro): 1.3%; MIC, C. tro 8915 (Candida tropicalis 8915): > 64.0 µg/mL; MIC, A. fum 7544 [1]: > 64.0 µg/mL; ergosterol content of the fungal cells (of total sterols) (C. albicans SC5314): 6.08%

More lines, main results first:

Row | MIC (Candida tropicalis 8915) [µg/mL] | MIC (Candida albicans SC5314) [µg/mL] | MIC [1] [µg/mL] | MIC [2] [µg/mL] | MIC [3] [µg/mL] | MIC (Candida glabrata 537) [µg/mL] | MIC [4] [µg/mL] | MIC (C. auris 919) [µg/mL] | MIC (C. auris 918) [µg/mL] | SMILES | other results
11 | > 64 | ≤ 0.125 | 32 (≈ 70.1 µM) | 0.25 (≈ 0.548 µM) | ≤ 0.125 | ≤ 0.125 | 32 (≈ 70.1 µM) | 32 (≈ 70.1 µM) | > 64 | C[C@@H](NC(=O)CCc1ccc(C(C)(C)C)cc1)[C@](O)(Cn1cncn1)c1ccc(F)cc1F [A9] | hemolysis at 1 h, 16 µg/mL (in vitro): 0.78%; MIC, C. alb SC5314 (Candida albicans SC5314): ≤ 0.125 µg/mL; ergosterol content of the fungal cells (of total sterols) (C. albicans SC5314): 5.17%
12 | > 64 | 2 (≈ 4.52 µM) | > 64 | 4 (≈ 9.04 µM) | 1 (≈ 2.26 µM) | 1 (≈ 2.26 µM) | – | – | – | CC(=O)c1ccc(CCC(=O)N[C@H](C)[C@](O)(Cn2cncn2)c2ccc(F)cc2F)cc1 [A11] | –
13 | 8 (≈ 17.7 µM) | ≤ 0.125 | 32 (≈ 70.7 µM) | 0.5 (≈ 1.1 µM) | 0.5 (≈ 1.1 µM) | ≤ 0.125 | 8 (≈ 17.7 µM) | 64 (≈ 141 µM) | 64 (≈ 141 µM) | C[C@@H](NC(=O)CCc1ccc(Cl)c(F)c1)[C@](O)(Cn1cncn1)c1ccc(F)cc1F [A15] | –
14 | 8 (≈ 17 µM) | ≤ 0.125 | 64 (≈ 136 µM) | 0.5 (≈ 1.07 µM) | ≤ 0.125 | ≤ 0.125 | 2 (≈ 4.26 µM) | > 64 | > 64 | C[C@@H](NC(=O)CCc1ccc(Cl)c(Cl)c1)[C@](O)(Cn1cncn1)c1ccc(F)cc1F [A16] | –
15 | > 64 | 1 (≈ 2.41 µM) | > 64 | 2 (≈ 4.81 µM) | 2 (≈ 4.81 µM) | 1 (≈ 2.41 µM) | – | – | – | Cc1cccnc1CCC(=O)N[C@H](C)[C@](O)(Cn1cncn1)c1ccc(F)cc1F [A19] | –
16 | 16 (≈ 30.1 µM) | 4 (≈ 7.53 µM) | 4 (≈ 7.53 µM) | 0.5 (≈ 0.941 µM) | 0.125 (≈ 0.235 µM) | 1 (≈ 1.88 µM) | – | – | – | CC(=O)N1CCN(c2ccc(OCC3COC(Cn4ccnc4)(c4ccc(Cl)cc4Cl)O3)cc2)CC1 (stereo not shown) [KCZ, ketoconazole, reference compound] | –
